Here are results for 2 compounds from patent publication EP0598515A1, “Method for herbicidal activity-enhancing, activity-enhanced herbicidal composition and activity-enhancing composition” (ISHIHARA SANGYO KAISHA LTD., priority 1992, dated 1994).

Values joined by “and” are separate entries in the source; they are usually repeats but may differ in a detail not shown here. Identical values can stand only once.

The test system of this assay is Crabgrass (Digitaria sanginalis L.). As to the kind of experiment: Test Example 5: pot test with kinds of vegetable oil. Format: in vivo. As to conditions: Example 7 water dispersible granules, 0.2% by volume Frigate + 0.4% by volume vegetable oil (90 parts oil, 10 parts Geronol VO/278), 23 days after treatment, duplicate. As to the method:
Crabgrass (Digitaria sanginalis L.) seeds were sown in 1/1,000,000-hectare pots filled with upland soil and arranged in a duplicate system. When the crabgrass plants grew to a 3.5- to 4.0-leaf stage, water dispersible granules obtained in Example 7 described hereinbefore was diluted with 200 liters/hectare of water containing 0.2% by volume of Frigate and 0.4% by volume of a vegetable oil which was previously prepared by mixing with a predetermined amount of Geronol VO/278 (trade name) and was applied foliarly to the plants with a small spray gun.
Twenty three days after treatment, the growth inhibition of the plants was evaluated with visual observation in the same manner as in Test Example 1 and are shown in Table 5.
In the test, a vegetable oil, a fatty acid originated therefrom and an alkylester of the fatty acid were used as the vegetable oil and which are each of mixture of 10 parts by weight of Geronol VO/278 and 90 parts by weight of the following vegetable oil, fatty acids originated from vegetable oils and alkylesters of fatty acids. • (a) corn oil • (b) fatty acid originated from corn oil (prepared by hydrolysis of corn oil) • (c) methylester of (b) • (d) methylester of fatty acid originated from cottonseed oil • (e) methylester of fatty acid originated from rapeseed oil • (f) methyl oleate (trade name: ADJ-100) • (g) butyl oleate (trial product No. 93091; produced by Takemoto Oils and Fats) TABLE 5

On to `CCCCCCCC/C=C\CCCCCCCC(=O)OCCCC` [g, butyl oleate], for which the “Growth Inhibition (%) of Crabgrass” value was 70% (Compound A 2.5 g/ha); 95% and 80% (Compound A 5 g/ha).

Consider `CCCCCCCC/C=C\CCCCCCCC(=O)OC` [f, methyl oleate], for which the “Growth Inhibition (%) of Crabgrass” value is, setting by setting: (Compound A 2.5 g/ha) 60%; (Compound A 5 g/ha) 90%.
